We go through 3 compounds from patent US6545033B1, “Fused 1-(2,6-dichloro-4-trifluoromethylphenyl)-pyrazoles, the synthesis thereof and the use thereof as pesticides” (3-Dimensional Pharmaceuticals, Inc., priority 1999, dated 2003).

Each structure is given as a SMILES string.

The subject of assay [1] is cat fleas (Ctenocephalides felis), CO Fleas. In words: In vivo cat flea contact assay, CO fleas. The conditions noted are these: Ctenocephalides felis, topical; contact with treated filter disk in vial, about 24-30 hours; mM = concentration of the DMSO solution, about 1 μL applied; read-out: LD50 (mM), CO Fleas. In a few lines:
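Compound in DMSO (0.05–100 mM stock), ~1 μL dried 24–48 h on GF/C disk in sealed glass vial; ~20 newly emerged fleas added after cold sedation, held in dark. Healthy, moribund and dead fleas counted after ~24–30 h; percent mortality corrected for DMSO-only control vials.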

A further assay has as its target T1, Housefly GABA receptors (Musca domestica, UniProt Q75NA5).
T1 sequence (Q75NA5 30-576): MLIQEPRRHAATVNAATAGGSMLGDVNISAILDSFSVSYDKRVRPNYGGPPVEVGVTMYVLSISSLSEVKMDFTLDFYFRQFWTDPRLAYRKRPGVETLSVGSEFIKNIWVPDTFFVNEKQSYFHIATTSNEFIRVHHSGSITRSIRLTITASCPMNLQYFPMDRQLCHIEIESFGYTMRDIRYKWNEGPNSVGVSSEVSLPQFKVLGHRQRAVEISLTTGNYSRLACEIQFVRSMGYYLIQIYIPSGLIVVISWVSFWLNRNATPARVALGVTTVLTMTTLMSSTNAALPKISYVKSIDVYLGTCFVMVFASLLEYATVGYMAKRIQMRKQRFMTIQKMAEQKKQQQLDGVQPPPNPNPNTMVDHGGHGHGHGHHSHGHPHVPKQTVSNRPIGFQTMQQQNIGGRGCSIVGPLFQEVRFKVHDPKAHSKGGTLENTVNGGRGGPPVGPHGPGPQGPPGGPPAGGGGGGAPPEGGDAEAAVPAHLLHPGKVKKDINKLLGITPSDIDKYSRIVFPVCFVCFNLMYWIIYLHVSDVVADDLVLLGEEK
Kind of assay: In vitro assay of binding to housefly GABA receptors (3H-EBOB displacement, housefly neuronal membranes). The conditions noted are these: for Compounds with the most activity (housefly 3H-EBOB binding): housefly neuronal membranes. In a few lines: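 Head neuronal membranes (20/35% sucrose interface) incubated 45 min at 24 °C in 10 mM phosphate, 300 mM NaCl, pH 7.5, with 3H-EBOB (added solution 5.2 nM) and membranes added at 0.5–1.0 mg/mL. Bound label captured on polyethylenimine-treated glass fibre filters and counted by scintillation.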

In the case of `FC(F)(F)c1cc(Cl)c(-n2cc3c(n2)CCCCC3)c(Cl)c1` [Compound 15, 2-[2,6-Dichloro-4-(trifluoromethyl)phenyl]-2,4,5,6,7,8-hexahydrocyclohepta[c]pyrazole], the LC50 in assay [1] was 29.5 mM. Besides, the “Compounds with the most activity (housefly 3H-EBOB binding)” value (“Compounds with the most activity” for short) at Housefly GABA receptors is on record as “most activity”.
Turning to `FC(F)(F)c1cc(Cl)c(-n2cc3c(n2)CCC3)c(Cl)c1` [Compound 11, 2-[2,6-Dichloro-4-(trifluoromethyl)phenyl]-2,4,5,6-tetrahydrocyclopenta[c]pyrazole], the LC50 in assay [1] turned out to be 8 mM. In addition, the IC50 on Housefly GABA receptors (displacement of 5.2 nM 3H-EBOB, housefly head neuronal membranes, about 45 min at about 24° C., read-out: IC50 (nM), Fly Head) came out at 83 nM. On Housefly GABA receptors, the “Compounds with the most activity” value was “most activity”.
Take `FC(F)(F)c1cc(Cl)c(-n2cc3c(n2)CSC3)c(Cl)c1` [Compound 3, 2-[2,6-Dichloro-4-(trifluoromethyl)phenyl]-4,6-dihydrothieno-[3,4-c]pyrazole]: the LC50 in assay [1] worked out at 1.7 mM. Moreover, the “Compounds with the most activity” value at Housefly GABA receptors was “most activity”.

In general, IC50 refers to the midpoint of a concentration-inhibition curve.
